Experimental data as given in patent US9376420B2 (YUHAN CORPORATION, priority 2012, dated 2016).

Molecular target: T1, human LXRβ (Homo sapiens, UniProt P55055)
T1 construct: expressed in transfected cells; host or cells: HEK293 cells (ATCC CRL-1573), transient transfection with pFA-hLXRβ/GAL4 and pUAS
T1 sequence (P55055 222-460 limits assumed): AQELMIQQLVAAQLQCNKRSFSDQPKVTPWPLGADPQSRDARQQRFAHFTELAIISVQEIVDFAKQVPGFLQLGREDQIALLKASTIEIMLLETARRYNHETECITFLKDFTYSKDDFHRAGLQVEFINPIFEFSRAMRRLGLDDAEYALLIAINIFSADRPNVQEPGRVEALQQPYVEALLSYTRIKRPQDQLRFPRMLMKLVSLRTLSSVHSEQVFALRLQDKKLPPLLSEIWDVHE
Experiment: Assay for Transcriptional Activity of LXRβ (GAL4-hLXRβ LBD luciferase reporter, transient transfection)
Format: cell-based
Settings: HEK293 cells transfected with pFA-hLXRβ/GAL4 and pUAS, 24 hours; for Emax: fold value in comparison with the control (DMSO-treated group); for EC50: increase of transcriptional activity of LXRβ, average of three independent tests
Text: The ligand-binding domain (LBD) cDNA of human LXRβ was inserted into an expression vector (pFA, Stratagene, USA) site adjacent to the yeast GAL4 transcription factor DNA binding domain to prepare an expression construct (pFA-hLXRβ/GAL4) (Willey et al., Genes & Development 9 1033-1045 (1995). The GAL4-responsive luciferase reporter plasmid, i.e., pUAS (Stratagene, USA), contained five copies of the GAL4 response element placed adjacent to the promoter and the luciferase reporter gene. The pFA-hLXRβ/GAL4 and pUAS were introduced into mammalian cells through transient transfection, followed by measuring the transcriptional activity of LXRβ.
HEK293 cells (human kidney cells, sATCC, CRL-1573) were incubated at a T-75 flask containing a DMEM supplemented with 10% fetal bovine serum (FBS) in a 37° C., until they reach about 70˜80% confluency. The culture media containing the cells was added to each well of a 96-well plate in a density of 5×10^4 cells per well. The pFA-hLXRβ/GAL4 and pUAS was transfected to the cells using a cationic-lipid transfection reagent (Lipofectamine™, Invitrogen), through culturing at 37° C. for 3 hours for transient transfection according to the manufacturer's instruction. The test compounds were dissolved in dimethyl sulfoxide (DMSO) in the concentrations of 50, 30, 10, 3, 1, 0.3, 0.1, 0.03, and 0.01 μM and then cells were treated with the prepared compound-containing solution (100 μl). The cells were incubated at 37° C. for 24 hours. After removal of the medium from each well, the lysis buffer (25 mM Tricine pH7.8, 2 mM DTT, 2 mM EGTA, 10% glycerol, 1% Triton X-100) was added with the amount of 20 μl per each well, and the plate was stirred at room temperature for 15 minutes. The luciferase reagent (prepared by adding 10 ml of the luciferase buffer (Promega) to 1 vial of the luciferase substrate (Promega)) was added to each well with the amount of 100 μl per well, followed by assaying with a luminometer according to the manufacturer's instruction.
The dose-response curve for calculating the EC50 values of the test compounds on the increase of transcriptional activity of LXRβ was prepared using the known LXR agonist (i.e., N-(2,2,2-trifluoro-ethyl)-N-[4-(2,2,2-trifluoro-1-hydroxy-1-trifluoromethyl-ethyl)-phenyl]-benzenesulfonamide) as a positive control and the vehicle (DMSO) as a negative control. The dose-response curve was produced from the 9-point curve having different concentrations at a 1/2 log unit. The EC50 value of a test compound, which is defined as a concentration for initiating the reaction corresponding to the half value between the Top value (i.e., the maximum value) and the Bottom value (baseline), was calculated according to the following equation. Y=Bottom+(Top-Bottom)/(1+10^((log EC50-X)*Hill Slope)).
In the above equation, Y is the observed value; X is the log concentration; Hill Slope is the slope of the curve; and Top and Bottom are the maximum value of test compound and the baseline value, respectively.
The following tables 1 and 2 show the EC50 values of the test compounds measured as in the above. In the tables 1 and 2, each EC50 value represents an average value obtained from three independent tests.

SMILES	Emax [fold]	EC50 [nM]
CN(C)S(=O)(=O)c1cccc(-c2cccc(C3CC(C(F)(F)C(F)(F)F)=NN3c3ccc(F)cc3F)c2)c1 (stereo not shown) [Example 87, 1-(2,4-difluoro-phenyl)-5-(3′-dimethylsulfamoyl-biphenyl-3-yl)-3-pentafluoroethyl-4,5-dihydro-1H-pyrazole]	46	91
OC(C1=NN(c2ccccc2Cl)C(c2ccc(-c3ccc(F)cc3)nc2)C1)(C(F)(F)F)C(F)(F)F (stereo not shown) [Example 353, 1-(2-chloro-phenyl)-5-[6-(4-fluoro-phenyl)-pyridin-3-yl]-3-[di-(trifluoromethyl)-hydroxy-methyl]-4,5-dihydro-1H-pyrazole]	94	473
COc1ccc(-c2ccc(C3CC(C(O)(C(F)(F)F)C(F)(F)F)=NN3c3ccccc3Cl)cc2F)cc1 (stereo not shown) [Example 363, 1-(2-chloro-phenyl)-5-(2-fluoro-4′-methoxy-biphenyl-4-yl)-3-[di-(trifluoromethyl)-hydroxy-methyl]-4,5-dihydro-1H-pyrazole]	50	1210
OC(C1=NN(c2ccccc2Cl)C(c2ccc(-c3cc4ccccc4o3)cc2)C1)(C(F)(F)F)C(F)(F)F (stereo not shown) [Example 262, 5-(4-benzofuran-2-yl-phenyl)-1-(2-chloro-phenyl)-3-[di-(trifluoromethyl)-hydroxy-methyl]-4,5-dihydro-1H-pyrazole]	92	6860
OC(C1=NN(c2ccccc2Cl)C(c2ccc(-c3ccoc3)cc2)C1)(C(F)(F)F)C(F)(F)F (stereo not shown) [Example 257, 1-(2-chloro-phenyl)-5-(4-furan-3-yl-phenyl)-3-[di-(trifluoromethyl)-hydroxy-methyl]-4,5-dihydro-1H-pyrazole]	57	1840
O=S(=O)(C1CC1)N1CC=C(c2cccc(N3N=C(C(O)(C(F)(F)F)C(F)(F)F)CC3c3ccccc3Cl)c2)CC1 (stereo not shown) [Example 438, 5-(2-chloro-phenyl)-1-[3-(1-cyclopropanesulfonyl-1,2,3,6-tetrahydropyridin-4-yl)-phenyl]-3-[di-(trifluoromethyl)-hydroxy-methyl]-4,5-dihydro-1H-pyrazole]	6	1930
CS(=O)(=O)c1cc(F)c(-c2cccc(C3CC(C(F)(F)C(F)(F)F)=NN3c3ccc(F)cc3F)c2)cc1F (stereo not shown) [Example 68, 5-(2′,5′-difluoro-4′-methanesulfonyl-biphenyl-3-yl)-1-(2,4-difluoro-phenyl)-3-pentafluoroethyl-4,5-dihydro-1H-pyrazole]	75	192
N#Cc1ccc(-c2cccc(C3CC(C(F)(F)C(F)(F)F)=NN3c3ccc(F)cc3F)c2)cn1 (stereo not shown) [Example 78, 5-[3-(2-cyano-pyridin-5-yl)-phenyl]-1-(2,4-difluoro-phenyl)-3-pentafluoroethyl-4,5-dihydro-1H-pyrazole]	25	2500
CS(=O)(=O)c1ccc(-c2ccc(F)c(C3CC(C(F)(F)C(F)(F)F)=NN3c3ccc(F)cc3F)c2)cn1 (stereo not shown) [Example 142, 1-(2,4-difluoro-phenyl)-5-[6-fluoro-3-(6-methanesulfonyl-pyridin-3-yl)-phenyl]-3-pentafluoroethyl-4,5-dihydro-1H-pyrazole]	73	181
CS(=O)(=O)c1ccc(-c2cccc(C3CC(C(F)(F)C(F)(F)F)=NN3c3ccc(F)cc3F)c2)cn1 (stereo not shown) [Example 92, 1-(2,4-difluoro-phenyl)-5-[3-(6-methanesulfonyl-pyridin-3-yl)-phenyl]-3-pentafluoroethyl-4,5-dihydro-1H-pyrazole]	81	344
CNCCCS(=O)(=O)c1cccc(-c2cccc(N3N=C(C(F)(F)C(F)(F)F)CC3c3ccc(F)cc3F)c2)c1.Cl (stereo not shown) [Example 212, 5-(2,4-difluoro-phenyl)-1-[3′-(3-methylamino-propane-1-sulfonyl)-biphenyl-3-yl]-3-pentafluoroethyl-4,5-dihydro-1H-pyrazole hydrochloride]	9	1620

Second part, the compound after the results:

Emax [fold]	EC50 [nM]	SMILES
105	842	O=S(=O)(C1CC1)N1CCN(c2ccc(F)c(C3CC(C(F)(F)C(F)(F)F)=NN3c3ccc(F)cc3F)c2)CC1 (stereo not shown) [Example 146, 1-(2,4-difluoro)-5-[2-fluoro-5-(4-cyclopropanesulfonyl-piperazin-1-yl)-phenyl]-3-pentafluoroethyl-4,5-dihydro-1H-pyrazole]
38	379	CS(=O)(=O)N1CC=C(c2ccc(C3CC(C(O)(C(F)(F)F)C(F)(F)F)=NN3c3ccc(F)cc3F)cc2)CC1 (stereo not shown) [Example 400, 1-(2,4-difluoro-phenyl)-5-[4-(1-methanesulfonyl-1,2,3,6-tetrahydropyridin-4-yl)-phenyl]-3-[di-(trifluoromethyl)-hydroxy-methyl]-4,5-dihydro-1H-pyrazole]
104	521	O=S(=O)(C1CC1)N1CC=C(c2ccc(C3CC(C(O)(C(F)(F)F)C(F)(F)F)=NN3c3ccccc3Cl)cc2)CC1 (stereo not shown) [Example 304, 1-(2-chloro-phenyl)-5-[4-(1-cyclopropanesulfonyl-1,2,3,6-tetrahydropyridin-4-yl)-phenyl]-3-[di-(trifluoromethyl)-hydroxy-methyl]-4,5-dihydro-1H-pyrazole]
60	771	OC(C1=NN(c2ccc(F)cc2F)C(c2ccc(-c3ccccn3)cc2)C1)(C(F)(F)F)C(F)(F)F (stereo not shown) [Example 385, 1-(2,4-difluoro-phenyl)-5-[4-pyridin-2-yl-phenyl]-3-[di-(trifluoromethyl)-hydroxy-methyl]-4,5-dihydro-1H-pyrazole]
46	94	Cc1cc(F)ncc1-c1ccc(C2CC(C(O)(C(F)(F)F)C(F)(F)F)=NN2c2ccc(F)cc2F)cc1 (stereo not shown) [Example 384, 1-(2,4-difluoro-phenyl)-5-[4-(6-fluoro-4-methyl-pyridin-3-yl)-phenyl]-3-[di-(trifluoromethyl)-hydroxy-methyl]-4,5-dihydro-1H-pyrazole]
15	5270	CC(C)(C)OC(=O)N1CCN(c2ccc(C3CC(C(O)(C(F)(F)F)C(F)(F)F)=NN3c3ccc(F)cc3F)cc2)CC1 (stereo not shown) [Example 404, 1-(2,4-difluoro-phenyl)-5-[4-(4-BOC-piperazin-1-yl)-phenyl]-3-[di-(trifluoromethyl)-hydroxy-methyl]-4,5-dihydro-1H-pyrazole]
49	368	COc1cc(C)c(-c2ccc(C3CC(C(O)(C(F)(F)F)C(F)(F)F)=NN3c3ccc(F)cc3F)cc2)cn1 (stereo not shown) [Example 383, 1-(2,4-difluoro-phenyl)-5-[4-(6-methoxy-4-methyl-pyridin-3-yl)-phenyl]-3-[di-(trifluoromethyl)-hydroxy-methyl]-4,5-dihydro-1H-pyrazole]
12	1810	CC(C)(C)OC(=O)N1CC=C(c2ccc(C3CC(C(O)(C(F)(F)F)C(F)(F)F)=NN3c3ccc(F)cc3F)cc2)CC1 (stereo not shown) [Example 398, 1-(2,4-difluoro-phenyl)-5-[4-(1-BOC-1,2,3,6-tetrahydropyridin-4-yl)-phenyl]-3-[di-(trifluoromethyl)-hydroxy-methyl]-4,5-dihydro-1H-pyrazole]
62	461	CN(C)S(=O)(=O)N1CCCN(c2ccc(C3CC(C(O)(C(F)(F)F)C(F)(F)F)=NN3c3ccc(F)cc3F)cc2)CC1 (stereo not shown) [Example 411, 1-(2,4-difluoro-phenyl)-5-[4-(4-dimethylsulfamoyl-homopiperazin-1-yl)-phenyl]-3-[di-(trifluoromethyl)-hydroxy-methyl]-4,5-dihydro-1H-pyrazole]
